Square brackets hold non-standard residues; d marks the D form. Peptide text beside a SMILES is read from it. 2Nal = N[C@@H](Cc1ccc2ccccc2c1)C(=O)O
How the values were obtained:
in vitro = in vitro ADME, bovine
Description: Serum stability of the peptides was determined in 25% (v/v) aqueous bovine calf serum (HyClone, cat. AUE-34962). Firstly, peptides were dissolved in serum at a concentration of 150 μg/mL and incubated at 37° C. After 45 min on ice for precipitating serum proteins, the serum was centrifuged at 12,000 g for 10 min at 4° C., and then the supernatants were lyophilized. Remaining amount of the peptides was determined by RP-HPLC.

[1] = test system: Eschericha coli (ATCC 25922), Staphylococcus aureus (ATCC 25923, 29213, and 19636), and Pseudomonas aeruginosa (ATCC 27853 and 9027); test: Salt resistance test: antibacterial activity assay (NCCLS microdilution, MIC90); type: cell-based; conditions: for antimicrobial activity: at MHB medium or the high-salt condition, FIG. 1a/1b; for antimicrobial activity compared with reference peptide (S1 or S2-Nal): MHB medium or the high-salt condition, comparison in words; for antimicrobial activity at 300 mM NaCl: FIG. 1b
Text: Antibacterial activity assay was used to determine the antimicrobial activity of S1, Nal-S1, S1-Nal-Nal, S1-Nal-Nal-Nal, S1-W, S1-W-W, S1-K-K-K, S2-Nal, S2-F-Nal, S2-Nal-Nal at different salt concentration. Eschericha coli (ATCC 25922), Staphylococcus aureus (ATCC 25923, 29213, and 19636), and Pseudomonas aeruginosa (ATCC 27853 and 9027) were used in the Example.
Microdilution method of National Committee for Clinical Laboratory Standards (NCCLS) was used to determine the minimal inhibition concentration (MIC). The MIC as used herein is a minimum inhibitory concentration required to inhibit the growth of 90% of organisms (MIC90).
In the Microdilution method, 1 μl of peptide solution (5,000 μg/ml to 78.1 μg/ml) and 99 μl of bacteria suspension were mixed and added into 96 wells plates. After 16 hours of incubation at 37° C., the optical density (O.D.) value at 600 nm was detected by ELISA (Thermo Max, Molecular Devices, Sunnyvale, Calif.). The Muller-Hinton Broth (MHB) medium without peptide and bacterial suspension were used as negative control and positive control, separately. The MIC value means a minimum inhibitory concentration required to inhibit the growth (equal or more than 90%) of bacteria.

[2] = test system: human red blood cells (hRBCs)
Description: The hemolysis of peptides was determined by evaluating the effect of peptides on human red blood cells (hRBCs). hRBCs were obtained by washing the heparinized blood with PBS buffer three times, and stored at physiological saline with 10% phosphate buffer. The peptides were dissolved in PBS buffer, and then 50 μl of 10% (v/v) hRBCs was added to the PBS buffer at 37° C. for 1 hour of incubation (the final volume concentration of the hRBCs was 5%). After 1 hour of incubation, the hBRCs were centrifuged, and the hemolysis ratio was determined by detecting the absorbance values at 540 nm using a spectrophotometer. The hemolysis ratio of hRBCs without treatment was defined as 0%, and the hemolysis ratio of hRBCs treated with 1% Triton-X 100 was defined as 100%.

Compound | degree of protection of the peptides from degradation in bovine calf serum (rank order) (in vitro) | antimicrobial activity [1] | antimicrobial activity compared with reference peptide (S1 or S2-Nal) [1] | hemolytic activity compared with other peptides [2] | antimicrobial activity at 300 mM NaCl [1] | remaining at 8 h, 150 μg/mL (in vitro; bovine, serum)
CC(=O)N[C@@H](CCCCN)C(=O)N[C@@H](CCCCN)C(=O)N[C@@H](Cc1ccc2ccccc2c1)C(=O)N[C@@H](CCCNC(=N)N)C(=O)N[C@@H](CCCCN)C(=O)N[C@@H](Cc1ccc2ccccc2c1)C(=O)N[C@@H](CC(C)C)C(=O)N[C@@H](C)C(=O)N[C@@H](CCCCN)C(=O)N[C@@H](CCCCN)C(N)=O [Nal-S1, KK-Nal-RK-Nal-LAKK] (Ac-KK[2Nal]RK[2Nal]LAKK-NH2; C-terminus assumed) | S1-Nal-Nal-Nal>S2-Nal-Nal=S2-Nal>S1-Nal-Nal>S1-Nal>S2-F-Nal>S1-KKK>S1>Nal-S1=S1-W>S1-WW | diminished | – | – | – | –
CC(=O)N[C@@H](CCCCN)C(=O)N[C@@H](CCCCN)C(=O)N[C@@H](Cc1c[nH]c2ccccc12)C(=O)N[C@@H](CCCNC(=N)N)C(=O)N[C@@H](CCCCN)C(=O)N[C@@H](Cc1c[nH]c2ccccc12)C(=O)N[C@@H](CC(C)C)C(=O)N[C@@H](C)C(=O)N[C@@H](CCCCN)C(=O)N[C@@H](CCCCN)C(=O)N[C@@H](Cc1ccc2ccccc2c1)C(N)=O [Peptide S1-Nal, KKWRKWLAKK-Nal] (Ac-KKWRKWLAKK[2Nal]-NH2; C-terminus assumed) | S1-Nal-Nal-Nal>S2-Nal-Nal=S2-Nal>S1-Nal-Nal>S1-Nal>S2-F-Nal>S1-KKK>S1>Nal-S1=S1-W>S1-WW | – | better than S1 | – | – | –
CC(=O)N[C@@H](CCCCN)C(=O)N[C@@H](CCCCN)C(=O)N[C@@H](Cc1c[nH]c2ccccc12)C(=O)N[C@@H](CCCNC(=N)N)C(=O)N[C@@H](CCCCN)C(=O)N[C@@H](Cc1c[nH]c2ccccc12)C(=O)N[C@@H](CC(C)C)C(=O)N[C@@H](C)C(=O)N[C@@H](CCCCN)C(=O)N[C@@H](CCCCN)C(=O)N[C@@H](Cc1ccc2ccccc2c1)C(=O)N[C@@H](Cc1ccc2ccccc2c1)C(N)=O [Peptide S1-Nal-Nal, KKWRKWLAKK-Nal-Nal] (Ac-KKWRKWLAKK[2Nal][2Nal]-NH2; C-terminus assumed) | S1-Nal-Nal-Nal>S2-Nal-Nal=S2-Nal>S1-Nal-Nal>S1-Nal>S2-F-Nal>S1-KKK>S1>Nal-S1=S1-W>S1-WW | still retained the antimicrobial activities | better than S1 | higher hemolytic activity than other peptides | – | –
CC(=O)N[C@@H](CCCCN)C(=O)N[C@@H](Cc1c[nH]c2ccccc12)C(=O)N[C@@H](Cc1c[nH]c2ccccc12)C(=O)N[C@@H](CCCCN)C(=O)N[C@@H](Cc1ccccc1)C(=O)N[C@@H](Cc1ccc2ccccc2c1)C(N)=O [Peptide S2-F-Nal, KWWK-F-Nal] (Ac-KWWKF[2Nal]-NH2; C-terminus assumed) | S1-Nal-Nal-Nal>S2-Nal-Nal=S2-Nal>S1-Nal-Nal>S1-Nal>S2-F-Nal>S1-KKK>S1>Nal-S1=S1-W>S1-WW | diminished | higher than that of S2-Nal | – | still retained their antimicrobial activities | –
CC(=O)N[C@@H](CCCCN)C(=O)N[C@@H](Cc1c[nH]c2ccccc12)C(=O)N[C@@H](Cc1c[nH]c2ccccc12)C(=O)N[C@@H](CCCCN)C(=O)N[C@@H](Cc1ccc2ccccc2c1)C(N)=O [Peptide S2-Nal, KWWK-Nal] (Ac-KWWK[2Nal]-NH2; C-terminus assumed) | S1-Nal-Nal-Nal>S2-Nal-Nal=S2-Nal>S1-Nal-Nal>S1-Nal>S2-F-Nal>S1-KKK>S1>Nal-S1=S1-W>S1-WW | diminished | – | – | – | –
CC(=O)N[C@@H](CCCCN)C(=O)N[C@@H](Cc1c[nH]c2ccccc12)C(=O)N[C@@H](Cc1c[nH]c2ccccc12)C(=O)N[C@@H](CCCCN)C(=O)N[C@@H](Cc1ccc2ccccc2c1)C(=O)N[C@@H](Cc1ccc2ccccc2c1)C(N)=O [Peptide S2-Nal-Nal, KWWK-Nal-Nal] (Ac-KWWK[2Nal][2Nal]-NH2; C-terminus assumed) | S1-Nal-Nal-Nal>S2-Nal-Nal=S2-Nal>S1-Nal-Nal>S1-Nal>S2-F-Nal>S1-KKK>S1>Nal-S1=S1-W>S1-WW | diminished | higher than that of S2-Nal | – | still retained their antimicrobial activities | –
CC(=O)N[C@@H](CCCCN)C(=O)N[C@@H](CCCCN)C(=O)N[C@@H](Cc1c[nH]c2ccccc12)C(=O)N[C@@H](CCCNC(=N)N)C(=O)N[C@@H](CCCCN)C(=O)N[C@@H](Cc1c[nH]c2ccccc12)C(=O)N[C@@H](CC(C)C)C(=O)N[C@@H](C)C(=O)N[C@@H](CCCCN)C(=O)N[C@@H](CCCCN)C(=O)N[C@@H](Cc1ccc2ccccc2c1)C(=O)N[C@@H](Cc1ccc2ccccc2c1)C(=O)N[C@@H](Cc1ccc2ccccc2c1)C(N)=O [S1-Nal-Nal-Nal, KKWRKWLAKK-Nal-Nal-Nal] (Ac-KKWRKWLAKK[2Nal][2Nal][2Nal]-NH2; C-terminus assumed) | S1-Nal-Nal-Nal>S2-Nal-Nal=S2-Nal>S1-Nal-Nal>S1-Nal>S2-F-Nal>S1-KKK>S1>Nal-S1=S1-W>S1-WW | still retained the antimicrobial activities | better than S1 | higher hemolytic activity than other peptides | – | ~100%
Ac-KKWRKWLAKK-NH2 [Peptide S1, Ac-KKWRKWLAKK-NH2] | S1-Nal-Nal-Nal>S2-Nal-Nal=S2-Nal>S1-Nal-Nal>S1-Nal>S2-F-Nal>S1-KKK>S1>Nal-S1=S1-W>S1-WW | diminished | – | – | – | –
Ac-KKWRKWLAKKKKK-NH2 (C-terminus assumed) [Peptide S1-K-K-K, KKWRKWLAKKKKK] | S1-Nal-Nal-Nal>S2-Nal-Nal=S2-Nal>S1-Nal-Nal>S1-Nal>S2-F-Nal>S1-KKK>S1>Nal-S1=S1-W>S1-WW | diminished | – | – | – | –
Ac-KKWRKWLAKKW-NH2 (C-terminus assumed) [Peptide S1-W, KKWRKWLAKKW] | S1-Nal-Nal-Nal>S2-Nal-Nal=S2-Nal>S1-Nal-Nal>S1-Nal>S2-F-Nal>S1-KKK>S1>Nal-S1=S1-W>S1-WW | diminished | – | – | – | –
Ac-KKWRKWLAKKWW-NH2 (C-terminus assumed) [Peptide S1-W-W, KKWRKWLAKKWW] | S1-Nal-Nal-Nal>S2-Nal-Nal=S2-Nal>S1-Nal-Nal>S1-Nal>S2-F-Nal>S1-KKK>S1>Nal-S1=S1-W>S1-WW | diminished | – | – | – | –
